# Assays:
# Assay in all cases: KINOMEscan competition binding
# Conditions in all cases: compound 10.0 µM
# [1] = biological target: IRAK3 (human) (UniProt Q9Y616)
# [2] = biological target: PRKACA (human) (UniProt P17612)
# [3] = biological target: HCK (human) (UniProt P08631)
# [4] = biological target: CDK3 (human) (UniProt Q00526)
# [5] = biological target: MAP2K6 (human) (UniProt P52564)
# [6] = biological target: BMPR2 (human) (UniProt Q13873)
# [7] = biological target: LTK (human) (UniProt P29376)
# [8] = biological target: EPHA5 (human) (UniProt P54756)
# [9] = biological target: PKN1 (human) (UniProt Q16512)
# [10] = biological target: NUAK2 (human) (UniProt Q9H093)
# Sequence of NUAK2 (human) (Q9H093 whole entry, looked up): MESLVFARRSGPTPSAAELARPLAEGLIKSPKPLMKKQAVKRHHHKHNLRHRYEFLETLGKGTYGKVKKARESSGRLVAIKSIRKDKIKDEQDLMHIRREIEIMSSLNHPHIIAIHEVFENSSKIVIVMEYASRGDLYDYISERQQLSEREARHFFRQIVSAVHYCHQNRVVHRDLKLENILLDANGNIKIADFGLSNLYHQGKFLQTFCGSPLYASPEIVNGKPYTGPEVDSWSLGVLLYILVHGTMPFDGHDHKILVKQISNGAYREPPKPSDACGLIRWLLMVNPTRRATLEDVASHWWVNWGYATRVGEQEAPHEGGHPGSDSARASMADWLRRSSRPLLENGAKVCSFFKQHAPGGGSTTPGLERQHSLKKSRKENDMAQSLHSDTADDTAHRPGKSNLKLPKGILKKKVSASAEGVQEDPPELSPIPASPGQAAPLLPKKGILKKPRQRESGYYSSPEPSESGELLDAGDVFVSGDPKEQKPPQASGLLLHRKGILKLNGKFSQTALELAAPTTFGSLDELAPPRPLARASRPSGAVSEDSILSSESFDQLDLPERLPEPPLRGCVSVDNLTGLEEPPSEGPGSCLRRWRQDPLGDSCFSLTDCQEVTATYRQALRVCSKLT
# [11] = biological target: MAP4K1 (human) (UniProt Q92918)
# Sequence of MAP4K1 (human) (Q92918 whole entry, looked up): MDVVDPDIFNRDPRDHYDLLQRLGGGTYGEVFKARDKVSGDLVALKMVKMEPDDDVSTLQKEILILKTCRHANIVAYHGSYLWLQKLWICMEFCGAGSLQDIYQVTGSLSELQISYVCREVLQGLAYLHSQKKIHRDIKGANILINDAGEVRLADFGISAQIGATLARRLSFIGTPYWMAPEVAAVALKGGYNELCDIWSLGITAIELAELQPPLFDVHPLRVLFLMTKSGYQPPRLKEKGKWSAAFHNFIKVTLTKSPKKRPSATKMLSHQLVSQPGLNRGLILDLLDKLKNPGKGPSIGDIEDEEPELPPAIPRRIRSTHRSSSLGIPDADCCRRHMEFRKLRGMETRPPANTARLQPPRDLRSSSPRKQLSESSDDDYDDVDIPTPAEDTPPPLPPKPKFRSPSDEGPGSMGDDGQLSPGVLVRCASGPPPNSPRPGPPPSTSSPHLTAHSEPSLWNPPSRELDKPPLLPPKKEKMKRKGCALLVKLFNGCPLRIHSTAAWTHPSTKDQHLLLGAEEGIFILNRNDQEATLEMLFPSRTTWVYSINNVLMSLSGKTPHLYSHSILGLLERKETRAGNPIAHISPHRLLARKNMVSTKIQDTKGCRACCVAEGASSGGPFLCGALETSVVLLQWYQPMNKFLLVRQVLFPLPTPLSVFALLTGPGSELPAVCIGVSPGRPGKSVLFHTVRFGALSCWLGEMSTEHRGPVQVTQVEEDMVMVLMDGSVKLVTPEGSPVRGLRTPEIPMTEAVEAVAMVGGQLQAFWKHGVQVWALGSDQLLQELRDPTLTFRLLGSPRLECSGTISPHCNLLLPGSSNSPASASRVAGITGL
# [12] = biological target: AKT2 (human) (UniProt P31751)
# [13] = biological target: MAPK4 (human) (UniProt P31152)
# [14] = biological target: MAP3K11 (human) (UniProt Q16584)
# [15] = biological target: MUSK (human) (UniProt O15146)
# [16] = biological target: FLT4 (human) (UniProt P35916)
# [17] = biological target: CAMK1D (human) (UniProt Q8IU85)
# [18] = biological target: CSNK1G2 (human) (UniProt P78368)
# [19] = biological target: MET (human) (UniProt P08581)
# [20] = biological target: NEK7 (human) (UniProt Q8TDX7)
# Sequence of NEK7 (human) (Q8TDX7 whole entry, looked up): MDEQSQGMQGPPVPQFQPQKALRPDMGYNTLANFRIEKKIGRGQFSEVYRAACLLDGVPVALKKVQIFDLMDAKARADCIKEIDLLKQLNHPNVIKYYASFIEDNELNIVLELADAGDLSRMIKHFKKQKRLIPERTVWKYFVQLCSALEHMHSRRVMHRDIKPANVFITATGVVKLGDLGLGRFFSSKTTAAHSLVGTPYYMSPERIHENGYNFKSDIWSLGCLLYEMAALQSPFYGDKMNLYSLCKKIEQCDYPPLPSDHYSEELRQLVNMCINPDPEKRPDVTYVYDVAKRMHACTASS
# [21] = biological target: MAPK3 (human) (UniProt P27361)
# [22] = biological target: EPHB2 (human) (UniProt P29323)
# [23] = biological target: PRKCH (human) (UniProt P24723)
# [24] = biological target: ULK3 (human) (UniProt Q6PHR2)
# Sequence of ULK3 (human) (Q6PHR2 whole entry, looked up): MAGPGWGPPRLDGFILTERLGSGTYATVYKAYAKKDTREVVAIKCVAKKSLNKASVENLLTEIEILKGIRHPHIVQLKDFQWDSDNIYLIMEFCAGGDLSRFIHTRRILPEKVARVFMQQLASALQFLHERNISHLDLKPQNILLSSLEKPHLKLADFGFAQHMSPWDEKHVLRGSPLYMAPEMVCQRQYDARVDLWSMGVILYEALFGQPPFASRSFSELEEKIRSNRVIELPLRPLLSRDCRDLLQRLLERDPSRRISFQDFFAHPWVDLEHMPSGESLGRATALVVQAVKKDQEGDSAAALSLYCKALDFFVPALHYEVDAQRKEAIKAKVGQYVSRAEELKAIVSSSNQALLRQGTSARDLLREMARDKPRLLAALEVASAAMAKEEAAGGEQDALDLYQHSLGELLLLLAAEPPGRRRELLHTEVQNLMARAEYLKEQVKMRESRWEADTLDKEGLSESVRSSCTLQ
# [25] = biological target: AURKA (human) (UniProt O14965)
# [26] = biological target: ERBB2 (human) (UniProt P04626)
# [27] = biological target: MAPK6 (human) (UniProt Q16659)
# [28] = biological target: MARK3 (human) (UniProt P27448)
# [29] = biological target: NEK5 (human) (UniProt Q6P3R8)
# [30] = biological target: FRK (human) (UniProt P42685)
# [31] = biological target: ANKK1 (human) (UniProt Q8NFD2)
# Sequence of ANKK1 (human) (Q8NFD2 whole entry, looked up): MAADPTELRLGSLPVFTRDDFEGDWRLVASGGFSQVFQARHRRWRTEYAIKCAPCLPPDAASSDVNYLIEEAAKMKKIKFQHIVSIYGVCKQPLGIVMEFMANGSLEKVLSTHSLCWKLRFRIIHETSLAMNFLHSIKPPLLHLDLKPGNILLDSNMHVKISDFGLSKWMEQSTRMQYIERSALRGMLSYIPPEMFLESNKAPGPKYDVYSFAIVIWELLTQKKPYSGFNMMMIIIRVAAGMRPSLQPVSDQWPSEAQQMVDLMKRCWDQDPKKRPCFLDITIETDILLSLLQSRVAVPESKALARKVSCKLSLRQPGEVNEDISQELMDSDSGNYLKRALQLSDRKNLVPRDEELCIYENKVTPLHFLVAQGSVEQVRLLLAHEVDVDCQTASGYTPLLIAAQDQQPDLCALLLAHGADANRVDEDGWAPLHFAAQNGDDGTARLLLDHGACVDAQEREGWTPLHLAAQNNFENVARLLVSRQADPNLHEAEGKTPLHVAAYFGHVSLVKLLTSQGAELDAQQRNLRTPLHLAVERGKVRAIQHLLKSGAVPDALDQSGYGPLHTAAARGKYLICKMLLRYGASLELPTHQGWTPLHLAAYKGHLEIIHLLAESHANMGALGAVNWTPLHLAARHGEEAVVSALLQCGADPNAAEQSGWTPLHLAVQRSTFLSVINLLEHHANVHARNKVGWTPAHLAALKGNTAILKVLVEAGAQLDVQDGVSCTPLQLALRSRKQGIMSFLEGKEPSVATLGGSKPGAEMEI
# [32] = biological target: CAMK2A (human) (UniProt Q9UQM7)
# [33] = biological target: FGR (human) (UniProt P09769)
# [34] = biological target: SGK110 (human) (UniProt P0C264)
# [35] = biological target: CAMK2G (human) (UniProt Q13555)
# [36] = biological target: PKMYT1 (human) (UniProt Q99640)
# [37] = biological target: ACVRL1 (human) (UniProt P37023)
# Sequence of ACVRL1 (human) (P37023 whole entry, looked up): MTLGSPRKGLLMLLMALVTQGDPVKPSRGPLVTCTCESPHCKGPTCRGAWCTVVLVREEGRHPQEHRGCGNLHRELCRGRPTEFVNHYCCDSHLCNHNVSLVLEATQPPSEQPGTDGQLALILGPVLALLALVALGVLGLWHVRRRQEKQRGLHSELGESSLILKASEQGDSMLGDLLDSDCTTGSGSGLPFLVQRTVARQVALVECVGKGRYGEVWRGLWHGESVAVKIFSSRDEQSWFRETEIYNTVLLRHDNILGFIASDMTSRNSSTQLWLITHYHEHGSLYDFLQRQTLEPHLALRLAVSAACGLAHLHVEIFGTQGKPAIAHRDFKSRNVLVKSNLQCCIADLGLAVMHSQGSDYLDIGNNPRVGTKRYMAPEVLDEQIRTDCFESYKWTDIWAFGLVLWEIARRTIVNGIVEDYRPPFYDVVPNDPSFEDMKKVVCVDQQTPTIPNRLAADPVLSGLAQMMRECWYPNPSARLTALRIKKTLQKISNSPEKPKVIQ
# [38] = biological target: TEC (human) (UniProt P42680)
# [39] = biological target: MYO3A (human) (UniProt Q8NEV4)
# [40] = biological target: PAK3 (human) (UniProt O75914)
# Sequence of PAK3 (human) (O75914 whole entry, looked up): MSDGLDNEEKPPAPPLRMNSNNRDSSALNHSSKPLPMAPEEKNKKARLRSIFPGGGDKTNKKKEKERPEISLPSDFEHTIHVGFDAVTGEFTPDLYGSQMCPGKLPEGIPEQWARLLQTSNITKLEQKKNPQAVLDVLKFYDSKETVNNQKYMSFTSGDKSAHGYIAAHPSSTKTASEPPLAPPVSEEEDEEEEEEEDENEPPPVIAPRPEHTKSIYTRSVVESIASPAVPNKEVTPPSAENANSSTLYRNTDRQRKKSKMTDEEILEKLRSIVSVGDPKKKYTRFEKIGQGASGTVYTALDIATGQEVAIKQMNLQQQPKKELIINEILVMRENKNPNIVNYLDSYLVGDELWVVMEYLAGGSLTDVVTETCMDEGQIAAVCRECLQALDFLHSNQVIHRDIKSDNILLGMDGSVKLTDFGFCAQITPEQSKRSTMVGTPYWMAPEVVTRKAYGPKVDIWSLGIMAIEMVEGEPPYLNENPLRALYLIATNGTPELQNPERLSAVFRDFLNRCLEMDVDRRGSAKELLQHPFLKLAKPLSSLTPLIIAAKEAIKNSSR
# [41] = biological target: TNK2 (human) (UniProt Q07912)
# [42] = biological target: PLK3 (human) (UniProt Q9H4B4)
# Sequence of PLK3 (human) (Q9H4B4 whole entry, looked up): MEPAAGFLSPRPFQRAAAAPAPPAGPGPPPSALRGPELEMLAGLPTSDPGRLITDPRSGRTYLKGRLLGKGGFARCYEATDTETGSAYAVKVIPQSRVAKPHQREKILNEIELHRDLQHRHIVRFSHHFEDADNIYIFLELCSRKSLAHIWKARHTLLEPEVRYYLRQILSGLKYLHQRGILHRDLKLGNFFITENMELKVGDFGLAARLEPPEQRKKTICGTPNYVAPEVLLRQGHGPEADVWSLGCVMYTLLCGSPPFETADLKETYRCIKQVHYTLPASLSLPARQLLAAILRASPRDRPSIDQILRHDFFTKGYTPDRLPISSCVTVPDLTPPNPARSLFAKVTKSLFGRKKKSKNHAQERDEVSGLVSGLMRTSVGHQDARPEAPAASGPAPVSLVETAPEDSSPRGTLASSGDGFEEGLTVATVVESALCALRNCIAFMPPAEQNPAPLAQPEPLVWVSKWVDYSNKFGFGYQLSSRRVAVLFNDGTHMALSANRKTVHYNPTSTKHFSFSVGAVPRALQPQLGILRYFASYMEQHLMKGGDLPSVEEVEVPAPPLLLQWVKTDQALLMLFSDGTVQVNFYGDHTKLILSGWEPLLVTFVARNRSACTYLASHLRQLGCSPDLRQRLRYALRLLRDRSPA
# [43] = biological target: PHKG1 (human) (UniProt Q16816)
# Sequence of CDK3 (human) (Q00526 whole entry, looked up): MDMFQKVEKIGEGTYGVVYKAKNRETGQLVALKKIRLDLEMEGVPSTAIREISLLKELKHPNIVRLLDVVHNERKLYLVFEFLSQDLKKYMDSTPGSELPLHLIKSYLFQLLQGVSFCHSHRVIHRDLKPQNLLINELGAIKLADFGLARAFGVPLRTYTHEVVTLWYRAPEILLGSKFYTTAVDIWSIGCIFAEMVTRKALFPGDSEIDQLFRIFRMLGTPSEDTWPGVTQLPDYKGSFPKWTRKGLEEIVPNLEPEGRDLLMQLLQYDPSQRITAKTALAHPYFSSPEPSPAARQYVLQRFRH
smiles,measurement,setting,value
CN1C(=O)c2ccccc2N(C)c2nc(Nc3ccc(N4CCC(O)CC4)cc3)ncc21,"kinase still bound, per cent of control",[1],82%
same,"kinase still bound, per cent of control",[2],100%
same,"kinase still bound, per cent of control",[3],35%
same,"kinase still bound, per cent of control",[4],100%
same,"kinase still bound, per cent of control",[5],100%
same,"kinase still bound, per cent of control",[6],78%
same,"kinase still bound, per cent of control",[7],100%
same,"kinase still bound, per cent of control",[8],100%
same,"kinase still bound, per cent of control",[9],100%
same,"kinase still bound, per cent of control",[10],23%
same,"kinase still bound, per cent of control",[11],64%
same,"kinase still bound, per cent of control",[12],100%
same,"kinase still bound, per cent of control",[13],100%
same,"kinase still bound, per cent of control",[14],100%
same,"kinase still bound, per cent of control",[15],100%
same,"kinase still bound, per cent of control",[16],100%
same,"kinase still bound, per cent of control",[17],98%
same,"kinase still bound, per cent of control",[18],80%
same,"kinase still bound, per cent of control",[19],77%
same,"kinase still bound, per cent of control",[20],100%
same,"kinase still bound, per cent of control",[21],100%
same,"kinase still bound, per cent of control",[22],100%
same,"kinase still bound, per cent of control",[23],100%
same,"kinase still bound, per cent of control",[24],77%
same,"kinase still bound, per cent of control",[25],2.4%
same,"kinase still bound, per cent of control",[26],99%
same,"kinase still bound, per cent of control",[27],97%
same,"kinase still bound, per cent of control",[28],60%
same,"kinase still bound, per cent of control",[29],100%
same,"kinase still bound, per cent of control",[30],70%
same,"kinase still bound, per cent of control",[31],100%
same,"kinase still bound, per cent of control",[32],86%
same,"kinase still bound, per cent of control",[33],6.6%
same,"kinase still bound, per cent of control",[34],5.4%
same,"kinase still bound, per cent of control",[35],100%
same,"kinase still bound, per cent of control",[36],100%
same,"kinase still bound, per cent of control",[37],100%
same,"kinase still bound, per cent of control",[38],100%
same,"kinase still bound, per cent of control",[39],85%
same,"kinase still bound, per cent of control",[40],37%
same,"kinase still bound, per cent of control",[41],29%
same,"kinase still bound, per cent of control",[42],97%
same,"kinase still bound, per cent of control",[43],95%
CN1C(=O)c2ccccc2N(C)c2nc(NS(=O)(=O)c3ccc(N)cc3)ncc21,"kinase still bound, per cent of control",[1],100%
same,"kinase still bound, per cent of control",[2],100%
same,"kinase still bound, per cent of control",[3],100%
same,"kinase still bound, per cent of control",[4],100%
same,"kinase still bound, per cent of control",[5],100%
same,"kinase still bound, per cent of control",[6],100%
same,"kinase still bound, per cent of control",[7],82%
same,"kinase still bound, per cent of control",[8],100%
same,"kinase still bound, per cent of control",[9],85%
same,"kinase still bound, per cent of control",[10],70%
same,"kinase still bound, per cent of control",[11],80%
same,"kinase still bound, per cent of control",[12],100%
same,"kinase still bound, per cent of control",[13],88%
same,"kinase still bound, per cent of control",[14],100%
same,"kinase still bound, per cent of control",[15],100%
same,"kinase still bound, per cent of control",[16],100%
same,"kinase still bound, per cent of control",[17],100%
same,"kinase still bound, per cent of control",[18],100%
same,"kinase still bound, per cent of control",[19],100%
same,"kinase still bound, per cent of control",[20],89%
same,"kinase still bound, per cent of control",[21],100%
same,"kinase still bound, per cent of control",[22],94%
same,"kinase still bound, per cent of control",[23],86%
same,"kinase still bound, per cent of control",[24],100%
same,"kinase still bound, per cent of control",[25],100%
same,"kinase still bound, per cent of control",[26],100%
same,"kinase still bound, per cent of control",[27],78%
same,"kinase still bound, per cent of control",[28],100%
same,"kinase still bound, per cent of control",[29],100%
same,"kinase still bound, per cent of control",[30],100%
same,"kinase still bound, per cent of control",[31],32%
same,"kinase still bound, per cent of control",[32],100%
same,"kinase still bound, per cent of control",[33],100%
same,"kinase still bound, per cent of control",[34],100%
same,"kinase still bound, per cent of control",[35],100%
same,"kinase still bound, per cent of control",[36],100%
same,"kinase still bound, per cent of control",[37],100%
same,"kinase still bound, per cent of control",[38],100%
same,"kinase still bound, per cent of control",[39],100%
same,"kinase still bound, per cent of control",[40],76%
same,"kinase still bound, per cent of control",[41],100%
same,"kinase still bound, per cent of control",[42],100%
same,"kinase still bound, per cent of control",[43],100%
COc1cc(N2CCN(C)CC2)ccc1Nc1ncc2c(n1)Nc1ccccc1NC2=O,"kinase still bound, per cent of control",[1],79%
same,"kinase still bound, per cent of control",[2],100%
same,"kinase still bound, per cent of control",[3],63%
same,"kinase still bound, per cent of control",[4],85%
same,"kinase still bound, per cent of control",[5],97%
same,"kinase still bound, per cent of control",[6],100%
same,"kinase still bound, per cent of control",[7],72%
same,"kinase still bound, per cent of control",[8],90%
same,"kinase still bound, per cent of control",[9],69%
same,"kinase still bound, per cent of control",[10],71%
same,"kinase still bound, per cent of control",[11],100%
same,"kinase still bound, per cent of control",[12],100%
same,"kinase still bound, per cent of control",[13],99%
same,"kinase still bound, per cent of control",[14],88%
same,"kinase still bound, per cent of control",[15],100%
same,"kinase still bound, per cent of control",[16],10%
same,"kinase still bound, per cent of control",[17],100%
same,"kinase still bound, per cent of control",[18],92%
same,"kinase still bound, per cent of control",[19],82%
same,"kinase still bound, per cent of control",[20],70%
same,"kinase still bound, per cent of control",[21],93%
same,"kinase still bound, per cent of control",[22],82%
same,"kinase still bound, per cent of control",[23],96%
same,"kinase still bound, per cent of control",[24],95%
same,"kinase still bound, per cent of control",[25],78%
same,"kinase still bound, per cent of control",[26],5%
same,"kinase still bound, per cent of control",[27],100%
same,"kinase still bound, per cent of control",[28],100%
same,"kinase still bound, per cent of control",[29],100%
same,"kinase still bound, per cent of control",[30],93%
same,"kinase still bound, per cent of control",[31],82%
same,"kinase still bound, per cent of control",[32],90%
same,"kinase still bound, per cent of control",[33],73%
same,"kinase still bound, per cent of control",[34],97%
same,"kinase still bound, per cent of control",[35],100%
same,"kinase still bound, per cent of control",[36],100%
same,"kinase still bound, per cent of control",[37],81%
same,"kinase still bound, per cent of control",[38],87%
same,"kinase still bound, per cent of control",[39],80%
same,"kinase still bound, per cent of control",[40],82%
same,"kinase still bound, per cent of control",[41],56%
same,"kinase still bound, per cent of control",[42],83%
same,"kinase still bound, per cent of control",[43],46%

# Source: the kinase profiling compilation of Christmann-Franck et al. (2016)
